Tests used:
[1] = molecular target: T1, MAP kinase-activated protein kinase 5 (Homo sapiens) (UniProt Q8IW41); experiment: Selectivity interaction (KinomeScan (DiscoverX)) EUB0001079a MAPKAPK5; conditions: at 1 µM
T1 sequence (whole entry): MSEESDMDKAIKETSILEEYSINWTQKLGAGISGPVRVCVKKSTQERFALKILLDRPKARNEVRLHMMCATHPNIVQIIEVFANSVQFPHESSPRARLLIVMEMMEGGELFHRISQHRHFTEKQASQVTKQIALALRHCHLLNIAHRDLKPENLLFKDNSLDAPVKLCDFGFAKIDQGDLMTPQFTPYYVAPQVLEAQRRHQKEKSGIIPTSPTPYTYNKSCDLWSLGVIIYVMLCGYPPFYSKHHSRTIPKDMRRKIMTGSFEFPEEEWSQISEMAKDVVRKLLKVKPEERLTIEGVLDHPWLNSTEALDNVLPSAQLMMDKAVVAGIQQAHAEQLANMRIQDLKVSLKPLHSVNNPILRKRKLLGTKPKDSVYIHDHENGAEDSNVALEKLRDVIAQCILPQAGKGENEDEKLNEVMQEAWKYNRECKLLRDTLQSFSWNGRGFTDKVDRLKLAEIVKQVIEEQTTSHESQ

[2] = molecular target: Sigma intracellular receptor 2 (Homo sapiens) (UniProt Q5BJF2); experiment: Selectivity interaction (GPCR panel (PDSP screen)) EUB0001079a TMEM97; conditions: at 10 µM
[3] = molecular target: T2, Serine/threonine-protein kinase 17A (Homo sapiens) (UniProt Q9UEE5); experiment: Selectivity interaction (KinomeScan (DiscoverX)) EUB0001079a STK17A; conditions: at 1 µM
T2 sequence (whole entry): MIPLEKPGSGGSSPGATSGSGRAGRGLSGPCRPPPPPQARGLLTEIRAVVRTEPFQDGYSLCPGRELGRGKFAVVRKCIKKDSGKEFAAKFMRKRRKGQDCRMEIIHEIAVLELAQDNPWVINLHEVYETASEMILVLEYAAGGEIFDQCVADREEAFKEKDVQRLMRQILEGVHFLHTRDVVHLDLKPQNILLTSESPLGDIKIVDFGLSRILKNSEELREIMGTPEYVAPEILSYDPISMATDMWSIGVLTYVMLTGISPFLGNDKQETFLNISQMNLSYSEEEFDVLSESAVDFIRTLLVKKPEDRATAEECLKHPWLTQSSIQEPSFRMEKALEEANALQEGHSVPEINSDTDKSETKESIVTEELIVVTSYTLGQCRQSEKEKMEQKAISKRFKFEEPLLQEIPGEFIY

[4] = molecular target: T3, Dual specificity mitogen-activated protein kinase kinase 4 (Homo sapiens) (UniProt P45985); experiment: Selectivity interaction (Kinase panel (DSF assay)) EUB0001559a MAP2K4
T3 sequence (whole entry): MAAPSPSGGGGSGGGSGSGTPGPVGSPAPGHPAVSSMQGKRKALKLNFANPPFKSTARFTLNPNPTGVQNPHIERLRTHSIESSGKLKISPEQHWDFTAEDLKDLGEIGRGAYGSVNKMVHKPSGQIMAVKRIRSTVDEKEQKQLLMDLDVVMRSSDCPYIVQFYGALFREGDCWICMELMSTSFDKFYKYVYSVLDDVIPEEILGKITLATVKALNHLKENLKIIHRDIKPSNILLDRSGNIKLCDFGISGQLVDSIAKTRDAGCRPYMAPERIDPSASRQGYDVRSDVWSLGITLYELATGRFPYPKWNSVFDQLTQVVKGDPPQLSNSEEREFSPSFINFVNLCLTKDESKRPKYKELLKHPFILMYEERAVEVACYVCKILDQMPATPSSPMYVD

[5] = molecular target: T4, Tyrosine-protein kinase Mer (Homo sapiens) (UniProt Q12866); experiment: Selectivity interaction (Kinase panel (Z-LYTE Assay)) EUB0001632a MERTK; conditions: at 10 µM
T4 sequence (whole entry): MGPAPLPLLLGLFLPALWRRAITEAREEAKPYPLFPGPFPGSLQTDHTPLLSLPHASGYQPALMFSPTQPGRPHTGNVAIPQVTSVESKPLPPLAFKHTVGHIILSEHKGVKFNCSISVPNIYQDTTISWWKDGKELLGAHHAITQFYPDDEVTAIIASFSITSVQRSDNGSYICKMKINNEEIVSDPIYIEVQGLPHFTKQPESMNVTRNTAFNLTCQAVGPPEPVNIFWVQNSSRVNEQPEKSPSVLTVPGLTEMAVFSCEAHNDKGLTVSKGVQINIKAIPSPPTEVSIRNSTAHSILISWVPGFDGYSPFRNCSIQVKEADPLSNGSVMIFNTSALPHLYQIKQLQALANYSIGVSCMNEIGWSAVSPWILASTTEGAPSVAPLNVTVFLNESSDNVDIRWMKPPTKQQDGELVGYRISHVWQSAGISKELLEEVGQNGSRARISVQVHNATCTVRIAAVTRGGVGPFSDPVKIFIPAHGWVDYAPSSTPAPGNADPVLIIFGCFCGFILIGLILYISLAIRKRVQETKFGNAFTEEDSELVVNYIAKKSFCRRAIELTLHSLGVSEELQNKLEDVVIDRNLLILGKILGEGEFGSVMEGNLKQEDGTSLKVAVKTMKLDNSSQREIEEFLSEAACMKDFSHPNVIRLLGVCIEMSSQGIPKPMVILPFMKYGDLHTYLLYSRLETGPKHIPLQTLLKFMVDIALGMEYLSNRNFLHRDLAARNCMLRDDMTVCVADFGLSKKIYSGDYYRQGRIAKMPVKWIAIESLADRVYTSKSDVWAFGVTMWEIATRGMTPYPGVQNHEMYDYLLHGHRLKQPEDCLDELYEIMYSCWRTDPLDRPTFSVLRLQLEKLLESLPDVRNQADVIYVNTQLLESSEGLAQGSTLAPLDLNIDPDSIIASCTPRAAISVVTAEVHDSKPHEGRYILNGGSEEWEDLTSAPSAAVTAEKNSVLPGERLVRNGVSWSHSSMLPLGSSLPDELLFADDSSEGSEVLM

Sigma intracellular receptor 2 (Homo sapiens), sequence (Q5BJF2 whole entry): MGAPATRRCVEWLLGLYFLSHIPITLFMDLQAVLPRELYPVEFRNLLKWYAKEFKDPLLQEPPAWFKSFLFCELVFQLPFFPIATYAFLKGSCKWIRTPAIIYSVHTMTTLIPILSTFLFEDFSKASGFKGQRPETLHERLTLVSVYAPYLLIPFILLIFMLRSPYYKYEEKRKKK

SMILES: Nc1cnc(N2CCc3cc(S(=O)(=O)Nc4c(F)cc(Cl)cc4F)cc(N4CCCC4=O)c32)nc1 [TP-020n]
- % of control [1]: 92%
- % of inhibition [2]: -12%
- % of control [3]: 100%

SMILES: CN(C(=O)c1cnn2cccnc12)c1cc2c(cc1N1CCOCC1)C(=O)N(C[C@@H](F)C(C)(C)O)C2
- dTM [4]: 0.2 K

SMILES: Cn1cc(-n2cnc3c(NCc4nc5cc(Cl)c(Cl)cc5[nH]4)nc(N4CCOCC4)nc32)cn1
- % of control [5]: 4.55%

Reference: ChEMBL document CHEMBL5465560, “Selectivity Literature for EUbOPEN Chemogenomic Library” (2024)
